This passage reports TGI and GI50 results from PubChem BioAssay (NCI).

SMILES strings stand for the structures.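 Cells were grown in 96-well plates and exposed to each compound for 48 hours at five concentrations; endpoints were interpolated linearly between bracketing concentrations, or set to the highest concentration if not reached. GI50 marks 50% less growth. TGI: total growth inhibition.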

Common to all, as to test: inhibition of tumour cell growth, NCI panel, 48 h
The test system of assay [1] is IGROV1 ovarian.
In assay [2] the test system is SN12C renal.
In assay [3] the test system is COLO 205 colon.
The test system of assay [4] is EKVX NSCLC.
In assay [5] the test system is KM12 colon.
The test system of assay [6] is M14 melanoma.
In assay [7] the test system is SR leukemia.
Assay [8] concerns PC-3 prostate.
Assay [9] concerns SNB-19 CNS.

For the compound `O/N=C1\C/C(=N\O)c2c(Br)sc(Br)c21`, the TGI in assay [1] was 97.8 µM; in assay [2] it was over 100 µM; in assay [3], over 100 µM; in assay [4], over 100 µM; in assay [5], over 100 µM; in assay [6] it was over 100 µM. The same compound yielded a TGI in [7] of over 100 µM.

With `CC(C)OC1=C(CC2(C)OCCO2)C(=O)C12OCCO2`, the TGI in assay [1], in assay [8], in [9], in assay [2], in assay [3] and in [4] was over 100 µM each time. Also, the TGI in assay [5] and in [6] was over 100 µM throughout.

As to `Cc1ccc2sc3c(NCCCN)nc4ccccc4c3c(=O)c2c1`, the GI50 in assay [1] was 1610 nM; in [8] it was 1710 nM; in [9] it was 1860 nM; in [2], 1680 nM; in [3], 2190 nM; in assay [4] it was 1890 nM. For the same compound, the values for the GI50 in assay [5] and in assay [6] were 1900 nM and 1910 nM, respectively. Also, the TGI in [1] came out at 3.26 µM; in [8], 3.4 µM; in [9], 3.69 µM; in [2] it was 3.13 µM; in assay [3], 5.13 µM; in [4] it was 4.09 µM. For the same compound, the values for the TGI in assay [5] and in assay [6] were 3.51 µM and 3.61 µM, respectively.

`OC(CCN1CCN(CCOC(c2ccccc2)c2ccccc2)CC1)c1ccccc1` (stereo not given): the TGI worked out at 59.3 µM in assay [1]; 65.5 µM in assay [8]; 88.6 µM in [9]; 82.3 µM in assay [2]; 29.1 µM in assay [3]; 45.8 µM in [4]. Also, the values for the TGI in assay [5] and in [6] were 51.1 µM and 34.1 µM, respectively.

In the case of `CCOP(=O)(OCC)C(Nc1ccc(Cl)cc1)c1ccc(F)cc1` (stereo not given), the TGI in assay [9] was over 100 µM; in assay [2], 53.2 µM; in [3], 87.1 µM; in [4], over 100 µM; in [5], over 100 µM; in [6], 37.2 µM. This compound also displayed a TGI in assay [7] of over 100 µM.

In the case of `O=c1oc2ccccc2c(O)c1C(c1ccc(OCc2ccccc2)cc1)c1c(O)c2ccccc2oc1=O`, the TGI in assay [1], in assay [8], in assay [9], in assay [2], in assay [3] and in assay [4] was over 100 µM throughout. Also, the TGI in assay [5] and in [6] was over 100 µM each time.

For `CN(C)C(=O)N1N[C@H](c2ccccc2)[C@@H]1c1ccccc1`, the TGI in assay [1], in assay [8], in assay [9], in [2], in assay [3] and in assay [4] was over 100 µM throughout. The TGI in assay [5] and in assay [6] was over 100 µM throughout.

Consider `O=C(O)C(Cc1ccccc1)Cc1ccccc1`, for which the TGI in assay [1], in assay [8], in assay [9], in assay [2], in assay [3] and in assay [4] was over 100 µM each time. The TGI in assay [5] and in assay [6] was over 100 µM each time.

`COC1(OC)CC(CO)(COc2cc(Cl)nc(N)n2)C1`: the TGI in assay [1], in assay [8], in assay [9], in assay [2], in [3] and in assay [4] was over 100 µM in each case. Also, the TGI in assay [5] is over 100 µM.

In the case of `C1=CC2C(C3CN(c4ccccc4)N=C13)C1C3C4C=CC21C=CC43` (stereo not given), the TGI in assay [1], in [8], in assay [9], in assay [2], in assay [3] and in assay [4] was over 100 µM each time. The TGI in assay [5] and in assay [6] was over 100 µM throughout.

Regarding `COc1cc2c3c(n(C)c(=O)c2cc1OC)-c1cc2c(cc1/C3=C\CCCCl)OCO2`, the TGI in [1], in assay [8], in assay [9], in assay [2], in assay [3] and in assay [4] was over 100 µM in each case. Moreover, the TGI in assay [5] is 70.1 µM; in assay [6], over 100 µM. Also, in [2], the GI50 is over 100000 nM.

As for `CC(C)(C)OC(=O)N1C(=O)C2CCCC21` (stereo not given), the TGI in [1], in assay [8], in [9], in [2], in [3] and in [5] was over 100 µM throughout. Further, the TGI in [6] and in [7] was over 100 µM each time.

In the case of `CCOc1ccc2c(c1)C(/C(C(Cl)=C(Cl)Cl)=[N+](/[O-])OC(=O)c1ccccc1)=N2`, the TGI in [8], in assay [9], in [2], in assay [3], in [4] and in assay [5] was over 100 µM throughout. In addition, the TGI in assay [6] and in [7] was over 100 µM throughout.

`Cc1ccc(C)n1-c1ccccc1C1C=Cn2c(=O)oc3c(OC(C)C)c(OC(C)C)c(O)c1c32` (stereo not given): the TGI in [1] was over 100 µM; in [8], 93.9 µM; in assay [9], over 100 µM; in assay [2] it was over 100 µM; in [3] it was 30.9 µM; in assay [4] it was over 100 µM. Further, the TGI in assay [5] and in [6] was over 100 µM throughout.

As to `CCC[N+](C)(C)CCCNC(=O)c1c(O)c2ccccc2[nH]c1=O`, the TGI in [1], in [8], in [2], in [3], in [4] and in assay [5] was over 100 µM in each case. In addition, the TGI in assay [7] is over 100 µM.
